Assay results published in patent US10208029B2, “Photoacid compositions having extended lifetime of proton dissociation state” (University of Central Florida Research Foundation, Inc., priority 2013, dated 2019).

Key:
[1] = pH of aqueous solution of photoacid 1 in the dark, under 419 nm irradiation and after light off; format: physicochemical
Description: Photoacid 1 shown in FIG. 2B as MEH comprises an example disclosed PAH comprising a protonated photochromic merocyanine (MEH) with a propyl sulfonate group on the nitrogen of the indoline moiety. It was discovered that photoacid 1 can reversibly change the proton concentration of its solution by over 100 times.
In an aqueous solution, the MEH form of 1 is predominantly at room temperature in the dark, which was proven by UV-Vis and NMR spectroscopy.
Proton dissociation of the cis-MEH produces cis-ME, which undergoes a nucleophilic ring closing reaction to yield the product shown as SP in FIG. 2B and a proton. The product formed by the ring closing process has a stabilized proton dissociation state.
When the light was turned off, the pH value increased quickly to ˜4.5 in ˜1 min, gradually returning to its original level in ˜5 min. This cycle can be repeated many times. Therefore, the proton concentration in a solution having photoacid 1 can be simply controlled by switching a visible light source on and off.

[2] = Reversibility of photo-induced proton release; format: physicochemical; conditions: PBS buffer with a pH of 7.4
Description: Referring now to FIGS. 6A-6QQ, the structures of 43 photoacids designed based on FIG. 3A including the photoacids 1 and 40 are shown. All of them have been synthesized. […]. Analogs of photoacid 1 have been extensively studied. Electron-donating groups (-Me and —OMe) on the phenolic moiety increase the stability of the photoacid towards hydrolysis and faster the reverse reaction rate. Photoacids with extended conjugated structures can absorb light and thus function at longer wavelengths than photoacid 1. For example, photoacid 20 has a maximum absorption at 538 nm in 95% ethanol solution, which is about 100 nm longer than that of photoacid 1. Photoacids 10, 17 and 39 have acrylate moieties. They can be used to make photoacid polymers via chain-growth polymerization or thiol-ene reaction. […]. […] In photoacid 34, a benzothiazolium is used as the EA part since it improves the reversibility of the photoreaction.

Structure (SMILES)	reversible change of proton concentration of its solution [1]	pH value of aqueous solution ([1]; 5.88×10^−4 M aqueous solution, 25° C., dark)	pH under irradiation ([1]; aqueous solution irradiated with 419 nm light)	pH drop upon irradiation ([1]; aqueous solution, 419 nm light)	time to return to original pH level after light off ([1]; aqueous solution, dark)	pKa ([1]; calculated from pH of 5.88×10^−4 M aqueous solution at 25° C., dark state)	pH value after the light was turned off ([1]; ~1 min after light off)	reversible proton release [2]
CC1(C)C(/C=C/c2ccccc2O)=[N+](CCCS(=O)(=O)[O-])c2ccccc21 [photoacid 1]	over 100 times	5.5	3.3	more than 2 units	~5 min	7.8	~4.5	–
O=S(=O)([O-])CCC[n+]1c(/C=C/c2cccc3cn[nH]c23)sc2ccccc21 [photoacid 34]	–	–	–	–	–	–	–	can reversibly release a proton
